Columns and labels:
Assay type in all cases: in vivo
[1] = system: Tobacco Budworm (Heliothis virescens); experiment: Test B.6 Control of tobacco budworm, eggs on sprayed insect diet in 96-well microtiter plates; conditions: 5 days
Procedure: Test B.6 Control of Tobacco Budworm (Heliothis virescens)
For evaluating control of tobacco budworm (Heliothis virescens) the test unit consisted of 96-well-microtiter plates containing an insect diet and 15-25 H. virescens eggs.
The compounds or mixtures were formulated using a solution containing 75% water and 25% DMSO. Different concentrations of formulated compounds or mixtures were sprayed onto the insect diet at 10 μl, using a custom built micro atomizer, at two replications.
(§1) For experimental mixtures in these tests identical volumes of both mixing partners at the desired concentrations respectively, were mixed together.
After application, microtiter plates were incubated at 28±1° C., 80±5% RH for 5 days. Egg and larval mortality was then visually assessed.

[2] = system: Vetch Aphid (Megoura viciae); experiment: Test B.1 Control of vetch aphid, sprayed broad bean leaf disks in 24-well microtiter plates; conditions: 5 days
Procedure: Test B.1 Control of Vetch Aphid (Megoura viciae)
For evaluating control of vetch aphid (Megoura viciae) through contact or systemic means the test unit consisted of 24-well-microtiter plates containing broad bean leaf disks.
The compounds or mixtures were formulated using a solution containing 75% water and 25% DMSO. Different concentrations of formulated compounds or mixtures were sprayed onto the leaf disks at 2.5 μl, using a custom built micro atomizer, at two replications.
For experimental mixtures in these tests identical volumes of both mixing partners at the desired concentrations respectively, were mixed together. After application, the leaf disks were air-dried and 5-8 adult aphids placed on the leaf disks inside the microtiter plate wells. The aphids were then allowed to suck on the treated leaf disks and incubated at about 23±1° C. and about 50±5% RH (relative humidity) for 5 days. Aphid mortality and fecundity was then visually assessed.

[3] = system: Boll Weevil (Anthonomus grandis); experiment: Test B.2 Control of boll weevil, eggs on sprayed insect diet in 24-well microtiter plates; conditions: 5 days
Procedure: Test B.2 Control of Boll Weevil (Anthonomus grandis)
For evaluating control of boll weevil (Anthonomus grandis) the test unit consisted of 24-well-microtiter plates containing an insect diet and 20-30 A. grandis eggs.
The compounds or mixtures were formulated using a solution containing 75% water and 25% DMSO. Different concentrations of formulated compounds or mixtures were sprayed onto the insect diet at 20 μl, using a custom built micro atomizer, at two replications.
as §1
After application, microtiter plates were incubated at about 23±1° C. and about 50±5% RH for 5 days. Egg and larval mortality was then visually assessed.

[4] = system: Yellow fever mosquito (Aedes aegyptii); experiment: Test B.4 Control of yellow fever mosquito, curative ultrasonic spraying of larvae in liquid diet; conditions: 2 DAT
Procedure: Test B.4 Control of Yellow fever mosquito (Aedes aegyptii) Test principle: Curative ultrasonic spraying of larvae in liquid diet
For evaluating control of Aedes aegyptii, the assay was conducted in microtiter plates (MTP's), wherein each well was filled with 0.2 ml of a Aedes aegyptii suspension of 5 to 15 freshly hatched larvae in a liquid diet of 200 ppm yeast in water, prepared directly before spraying.
The compounds were formulated at desired concentration using a solution containing 75% v/v water and 25% v/v DMSO. Different concentrations of formulated compounds were applied at 2.5 μl, using a ultrasonic spraying, at two replications.
The MTPs were sealed with the matching lids in a climatized test chamber at about 28° C.+1° C. and about 80+5% RH (relative humidity) and at 3500+500 lux of fluorescent light.
Assessment was made 2 days after treatment (DAT) using as criterion movement of the larvae. Valid assessment values were at level 0, 50 and 100, wherein 100 indicates no movement, 50 indicates few movement and 0 indicates moderate to high movement.

[5] = system: Green Peach Aphid (Myzus persicae); experiment: Test B.3 Control of green peach aphid, systemic, liquid artificial diet under membrane; conditions: 3 days
Text: Test B.3 Control of Green Peach Aphid (Myzus persicae)
For evaluating control of green peach aphid (Myzus persicae) through systemic means the test unit consisted of 96-well-microtiter plates containing liquid artificial diet under an artificial membrane.
The compounds or mixtures were formulated using a solution containing 75% water and 25% DMSO. Different concentrations of formulated compounds or mixtures were pipetted into the aphid diet, using a custom built pipetter, at two replications.
as §1
After application, 5 -8 adult aphids were placed on the artificial membrane inside the microtiter plate wells. The aphids were then allowed to suck on the treated aphid diet and incubated at about 23±1° C. and about 50±5% RH for 3 days. Aphid mortality and fecundity was then visually assessed.

Caenorhabditis elegans = experiment: Test B.5 Control of Caenorhabditis elegans, curative ultrasonic spraying of nematodes in liquid diet; conditions: 4 DAT
Procedure: Test B.5 Control of Caenorhabditis elegans Test principle: Curative ultrasonic spraying of nematodes in liquid diet
For evaluating control of Caenorhabditis elegans the test unit consisted of microtiter plates (MTP), wherein each well was filled with 0.18 ml of a C. Elegans suspension containing 60 to 100 individuals of C. elegans at mixed life stages in a liquid diet.
The compounds were formulated at desired concentration using a solution containing 75% v/v water and 25% v/v DMSO. Different concentrations of formulated compounds were applied at 5 μl by ultrasonic spraying onto the liquid diet, at two replications. After application, the treated microtiterplates were incubated in a climatized test chamber at temperature of about 18+/−1° C. and 70+/−5% RH in the dark.
Assessment was made 4 days after treatment (DAT) using as criterion movement of nematodes. Valid assessment values were at level 0, 50 and 100, wherein 100 indicates no movement, 50 indicates few movement and 0 indicates moderate to high movement.

[6] = alphacypermethrin alone, 0.4 ppm
[7] = alpha cypermethrin alone, 10 ppm

**Q.** For CC1(C)C(C=C(Cl)Cl)C1C(=O)OC(C#N)c1cccc(Oc2ccccc2)c1 (stereo not drawn) [Alpha cypermethrin, alpha-cypermethrin], which Average control % [1, 6] is on record?
**A.** 0%

**Q.** What about the Average control % ([2]; alpha cypermethrin alone, 2 ppm) of the same compound?
**A.** 0%

**Q.** What about the Average control % [3, 7] of the same compound?
**A.** 0%

**Q.** What about the Average control % [3, 6] of the same compound?
**A.** 0%

**Q.** What about the Average control % [4, 7] of the same compound?
**A.** 0%

**Q.** And the Average control % [5, 7]?
**A.** 0%

**Q.** Which Average control % ([1]; CE.I.31 alone, 2000 ppm) does the source give for Cc1cc(F)c(-n2cnc3ccc(F)cc3c2=O)cc1[S+]([O-])CC(F)(F)F (stereo not drawn) [CE.I.31, 6-Fluoro-3-[2-fluoro-4-methyl-5-2(2,2,2-trifluoroethanesulfinyl)-phenyl]-3H-quinazolin-4-one] here?
**A.** 0%

**Q.** With Cc1cc(F)c(-n2cnc3ccccc3c2=O)cc1SCC(F)(F)F [CE.I.34, 2-(2,2,2-trifluoroethylsufanyl)-4-(4-oxo-quinazolin-3-yl)-5-fluoro-toluol] as the compound, how does the Average control % ([2]; CE.I.34 alone, 100 ppm) read?
**A.** 0%

**Q.** What about the Average control % ([3]; CE.I.34 alone, 100 ppm) of the same compound?
**A.** 0%

**Q.** And the Average control % (Caenorhabditis elegans; CE.I.34 alone, 100 ppm)?
**A.** 0%

**Q.** What about the Average control % ([5]; CE.I.34 alone, 4 ppm) of the same compound?
**A.** 0%

**Q.** Cc1cc(F)c(-n2cnc3ccccc3c2=O)cc1[S+]([O-])CC(F)(F)F (stereo not drawn) [CE.I.35, 2-(2,2,2-trifluoroethylsufinyl)-4-(4-oxo-quinazolin-3-yl)-5-fluoro-toluol] was tested. Which Average control % ([3]; CE.I.35 alone, 500 ppm) did it give?
**A.** 0%

**Q.** What about the Average control % ([3]; CE.I.35 alone, 2500 ppm) of the same compound?
**A.** 0%

**Q.** What about the Average control % ([4]; CE.I.35 alone, 4 ppm) of the same compound?
**A.** 0%

**Q.** What about the Average control % ([4]; CE.I.35 alone, 500 ppm) of the same compound?
**A.** 0%

**Q.** And the Average control % ([4]; CE.I.35 alone, 2500 ppm)?
**A.** 0%

**Q.** CCOCn1c(-c2ccc(Cl)cc2)c(C#N)c(Br)c1C(F)(F)F [Chlorfenapyr, chlorfenapyr] was tested. Which Average control % (Caenorhabditis elegans; chlorfenapyr alone, 10 ppm) did it give?
**A.** 0%

**Q.** How did the Average control % ([1]; spirodiclofen alone, 3.2 ppm) turn out when CCC(C)(C)C(=O)OC1=C(c2ccc(Cl)cc2Cl)C(=O)OC12CCCCC2 [Spirodiclofen, spirodiclofen] was run?
**A.** 0%

**Q.** With Cc1cc(C)c(C2=C(OC(=O)CC(C)(C)C)C3(CCCC3)OC2=O)c(C)c1 [Spiromesifen, spiromesifen] as the compound, how does the Average control % ([3]; spiromesifen alone, 500 ppm) read?
**A.** 0%

**Q.** With abamectin as the compound, how does the Average control % ([4]; abamectin alone, 2 ppm) read?
**A.** 0%

**Q.** With spinosad as the compound, how does the Average control % ([4]; spinosad alone, 2 ppm) read?
**A.** 0%

Reference: patent US20140221201A1, “INSECTICIDAL ACTIVE MIXTURES COMPRISING ARYLQUINAZOLINONE COMPOUNDS” (priority 2011, published 2014)
